Results reported in patent US10995068B2, “Synthetic sphingolipid-like molecules, drugs, methods of their synthesis and methods of treatment” (The Regents of the University of California, priority 2015, dated 2021).

Key:
[1] = tested on: fusion of LC3-positive autophagosomes with LAMP1-positive lysosomes; assay: Autophagosome-lysosome fusion in chloroquine-treated cells; type: cell-based
Method: It is known in the art that cells adapt to nutrient stress by increasing autophagic flux. However, autophagosome-lysosome fusion reactions depend upon […] release via TRPML1 channels that are activated by PI(3,5)P2. […] Chloroquine (CQ) is molecule that stabilizes the transient autophagosomes. Cells were treated with CG to stabilize autophagolysosomes and subsequently treated with FTY720, SH-BC-893, or YM201636. […] Phosphatidylinositol 5-Phosphate (PI(5)P) is essential for autophagosome biogenesis upon glucose depletion. PI(5)P is produced by dephosphorylating PI(3,5)P2, and thus PI(5)P might also be mis-localized in SH-BC-893-treated cells, and thus also contributing to the disruption of autophagosome formation. […] Thus, SH-BC-893 inhibited both autophagosome formation and degradation. As a control, Vac14 over-expression limited vacuolation (FIGS. 55F, 61F, and 62B) and rescued autophagic flux in SH-BC-893-treated cells (FIGS. 61A, 61B, 61D and 61E).
(§1) Light Microscopy: Brightfield and epifluorescence microscopy were conducted using a Nikon TE2000-S fluorescence microscope; confocal microscopy was performed on a Zeiss LSM780 confocal microscope or Nikon Eclipse Ti spinning disk confocal microscope. […] Co-localization was determined using JACoP plugin in ImageJ software. Macropinocytosis was measured after 16 h incubation in serum-free DMEM. p53−/−; LSL-K-RasG12D MEFs before (LSL) or after (KRasG12D) introduction of Cre were serum starved for 16 h and then treated with macropinocytosis inhibitor 5-(N-ethyl-N-isopropyl) amiloride (EIPA, 75 μM) for 1 h or SH-BC-893 for 6 h. Oregon Green dextran (Life Technologies, cat #D7173) (1 mg/mL) and Lysotracker Red (Life Technologies, cat #L-7525) (1:2,000 dilution) were added for 30 min and live cells were evaluated on the spinning disc confocal microscope. […]

[2] = tested on: K-RasG12D expressing cells; assay: Macropinosome fusion with lysosomes; type: cell-based; conditions: dextran
Excerpt: In cells with activated Ras, macropinocytosis might also confer resistance to nutrient transporter down-regulation. However, PI(3,5)P2 is also required for macropinosome degradation. […] Macropinosomes that fail to fuse with lysosomes would not be able to supply nutrients, such as amino acids. Thus, by disrupting PIKfyve localization, sphingolipid-like compounds limit access to lysosome-derived nutrients at the same time it down-regulates transporters for amino acids and glucose.
as §1

[3] = tested on: PC3 prostate cancer cells; assay: Cell Titer Glo proliferation assay in PC3; type: cell-based, human; conditions: Cell Titer Glo, 72 h; Mean ± SEM, n ≥ 3; read-out: IC50 values in prostate cancer cell lines, PC3
How it was run: (§2)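 Cells plated at 1,000 cells/well and left at least 24 h, then exposed to compound for 72 h. Permeabilised with 0.1% Triton-X100, lysed with Cell Titer-Glo reagent, luminescence read; IC50 from dose-response curves. PC3 grown in F12K with 10% FCS, DU145 in MEM with 10% FCS and pyruvate.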

[4] = tested on: DU145 prostate cancer cells; assay: Cell Titer Glo proliferation assay in DU145; type: cell-based, human; conditions: 72 h, Mean ± SEM, n ≥ 3, read-out: IC50 values in prostate cancer cell lines, DU145
How it was run: as §2

[5] = tested on: subcutaneous SW620 xenograft tumors; assay: SW620 xenograft study in nude mice; type: in vivo; conditions: 20 mg/kg daily by intraperitoneal injection
Method: In even another exemplary study, anti-neoplasm potency of the constrained pyrrolidine sphingolipid-like compounds in xenograft tumor animal studies. Nude mice bearing subcutaneous SW620 xenograft tumors were treated daily with 10 mg/kg FTY720 or 20 mg/kg of compounds 5 or 15 by intraperitoneal injection. […] Furthermore, these compounds retain many of the beneficial abilities of FTY720, such as, for example water solubility, oral bioavailability, and anti-tumor activity but no longer trigger bradycardia. Thus, these compounds are ideal for medicaments and treatments for neoplasms.
SW620 and SW480 xenograft studies: For SW620 xenograft studies, two and one half million luciferase-expressing SW620 colon cancer cells suspended in PBS with 2% FCS are injected subcutaneously in the flank of 7 week old male nude mice (Charles Rivers Labs, Crl:NU(NCr)-Foxn1nu). When tumors reached 100 mm^3 in volume, mice are assigned to groups with matched average tumor volumes and animal weights. Four groups containing 7 mice are treated intraperitoneally with either vehicle (0.9% saline), 10 mg/kg FTY720, or 20 mg/kg compound 5 or compound 15. Tumor length and width are measured with calipers at 7 and 11 days of treatment. Tumor volume is calculated using the formula volume (mm^3)=length [mm]×(width [mm])^2×0.52. The average fold change in the volume of each tumor over time is shown.

Structure (SMILES)	fusion of LC3-positive autophagosomes with LAMP1-positive lysosomes [1]	macropinosome fusion with lysosomes [2]	IC50 [3] [µM]	IC50 [4] [µM]	tumor growth of SW620 xenografts [5]
Nc1ccc(C(=O)Nc2cccc(-c3nc(N4CCOCC4)c4oc5ncccc5c4n3)c2)cn1 [YM201636, reference compound]	reduced fusion	dramatically reduced macropinosome fusion with lysosomes	–	–	–
CCCCCCCCc1ccc([C@H]2CCN[C@@H]2COC)cc1.Cl [Compound 15]	–	–	6.3 ± 0.3	5.9 ± 0.3	inhibited tumor growth
